According to patent publication US9730445B2, “Herbicidal compositions comprising 4-amino-3-chloro-5-fluoro-6-(4-chloro-2-fluoro-3-methoxyphenyl) pyridine-2-carboxylic acid or a derivative thereof and fungicides” (DOW AGROSCIENCES LLC, priority 2013, dated 2017):
“And” between values parts separate entries of the source, which are not always exact repeats. Equal entries are not always repeated.

Tested on: IPOHE
Test: Postemergence foliar-applied weed control, direct-seeded rice (greenhouse)
Type: in vivo, Ipomoea hederacea (L.) Jacq. (ivyleaf morningglory)
Conditions: r10-12 ester 4.38/8.75/17.5 g ae/ha alone, r13 difenoconazole 200 g ai/ha alone, r14-16 ester 4.38/8.75/17.5 + 200

COc1c(Cl)ccc(-c2nc(C(=O)OCc3ccccc3)c(Cl)c(N)c2F)c1F [Compound A Benzyl Ester]
Visual Weed Control (%) - 21 DAA IPOHE Obs: 10% and 20%
